These results are taken from patent US6689397B2, “Identification of snake repellents” (priority 1999, dated 2004).

Structures are written as SMILES.

In experiment [1] the test system is Brown tree snakes (Boiga irregularis). Description: Aerosol tests: 2 s aerosol spray onto snake's head, behavior observed for 5 min. To be noted: single reagents; for activity category from cluster analysis of behaviors (clusters I-V): Ward's method on VM, SM, LAT, TOT, % VM, % SM; for latency to response (movement latency) / movement when sprayed: 2 s aerosol; for latency to response (movement latency): post-hoc comparison with amyl acetate; for movement when sprayed: 5 min observation. The format is in vivo. On the procedure: Brown tree snakes (Boiga irregularis), N=400, were captured on the island of Guam along forest-jungle edge using modified minnow traps with live mice lures or by hand after being spot-lighted on fences. Snakes were individually housed in plastic containers until tested. The holding containers were housed in a military warehouse on Andersen Air Force Base, Guam under a 12:12 light:dark cycle. In general snakes were tested only once. […] Capture of snakes occurred during three separate visits to the island: 1997, 1998, 1999.
Essential oils and individual chemicals were diluted into an inert carrier liquid (water) for the purpose of testing. An emulsifying agent (3× yucca extract) was added to the composition to stabilize the water insoluble essential oils and individual chemicals in aqueous solution. The test formulations consisted of 1% test agent (i.e., a specific essential oil or chemical), 1% 3× yucca extract and 98% water. The formulated contents were held in a reservoir in which a siphon was suspended. Pressurized air, contained in an aerosol can was passed over the orifice of the siphon to create a negative pressure which would drawn the test formulation up through the siphon and eject the formulated contents and pressurized air through a small bore nozzle to create an atomized liquid, i.e. aerosol spray.
For testing, the holding tub was moved to the observation room and the solid lid was replaced with a lid with a screen insert. […] Snakes that became active as a result of the handling were not used in the assay. After a 15 min interval where the snake remained in a coiled position, aerosol was sprayed directly onto the snake's head for 2 s at a distance of 30 mm. Immediately after aerosol application, the observer moved to an observation distance of 3 m. We limited observations to the 5 min following aerosol applications. […] Also, in pilot tests, and with only few exceptions, the escape activity of the snake given an acute (2 s) exposure to the chemical subsided after 5 min.
Behaviors were categorized by a trained observer as follows: VM was a violent, vigorous movement by snakes exposed to the aerosol. This movement was characterized by undirected flailing and vigorous probing of the creases of the test chamber. SM, was characterized as a directed, slow search behavior, often accompanied by tongue flicks. This behavior could also be classified as investigatory behavior. In both cases the duration (s) of these behaviors was noted. The time from the application of the stimulus to the onset of either VM or SM was defined as the latency, LAT-VM and LAT-SM, respectively. For the purposes of analysis we used the latency to the first locomotory behavior, LAT, as the quantifiable metric. TOT was defined as the total amount of time (s) that a snake was engaged in locomatory behavior. The time spent in each locomatory behavior relative to the total active time was defined as % VM and % SM, respectively.
We used a fixed effects analysis of variance for the a priori comparison across chemicals. In the first set of analyses, essential oil was the between measures effects while behavior was the dependent variable. We used a post hoc Tukey's Honest Significance Difference test to isolate differences among test stimuli for each of the behavioral measures. Similar analyses were performed for the single reagents. We also categorized reagents into groups that yielded similar combinations of behaviors using cluster analysis (STATISTICA 1999). Amalgamation of clusters was achieved using Ward's method. This approach is distinct from most clustering algorithms in that it uses an analysis of variance approach to evaluate the distances between clusters. The distance measure used was a Chebychev distance. This approach tends to maximize the number of clusters because it is sensitive to differences among objects along single dimensions. The behavioral dimensions considered were: VM, SM, LAT, TOT, % VM, and % SM.

Experiment [2] relates to brown treesnakes. To be noted: in vivo; cited from earlier work.

For `CC(C)C12CCC(C)(CC1)O2` [1,4-cineole], the “activity category from cluster analysis of behaviors (clusters I-V)” value (“activity category from cluster analysis” for short) in experiment [1] was “most active”.
Turning to `c1ccc2ccccc2c1` [Naphthalene], the “irritant to brown treesnakes” value in experiment [2] is “not an irritant”.
With `CC1=CCC2CC1C2(C)C` (stereo not shown) [a-pinene], in experiment [1], the “activity category from cluster analysis” value was “moderately active”.
As to `CC1=CC=C(C(C)C)CC1` [a-terpinene], in experiment [1], the “latency to response (movement latency)” value is “longer than amyl acetate” and the “activity category from cluster analysis” value is listed as “only weakly active”.
Regarding `CCCCCOC(C)=O` [amyl acetate], in experiment [1], the “latency to response (movement latency)” value is on record as “shortest” and the “activity category from cluster analysis” value is recorded as “highly irritating, but poor at promoting long-term locomatory behavior”.
On to `CC12CCC(CC1=O)C2(C)C` (stereo not shown) [camphor], for which, in experiment [1], the movement when sprayed entry is recorded as “did not move at all”, the “latency to response (movement latency)” value was “longer than amyl acetate” and the “activity category from cluster analysis” value is on record as “did not react”.
For `O=CC=Cc1ccccc1` [cinnamaldehyde], the “activity category from cluster analysis” value in experiment [1] is “most active”.
With `O=C(O)C=Cc1ccccc1` [cinnamic acid], in experiment [1], the movement when sprayed result was “did not move at all”, the “latency to response (movement latency)” value was “longer than amyl acetate” and the “activity category from cluster analysis” value is “did not react”.
On to `CC(C)=CCCC(C)=CC=O` [citral], for which, in experiment [1], the “activity category from cluster analysis” value was “most active”.
For `CCCC(=O)OCC` [ethyl butyrate], in experiment [1], the “latency to response (movement latency)” value is listed as “longer than amyl acetate” and the “activity category from cluster analysis” value is recorded as “only weakly active”.
As to `CCOC(=O)Cc1ccccc1` [ethyl phenyl acetate], in experiment [1], the “activity category from cluster analysis” value is on record as “moderately active”.
`C=CCc1ccc(O)c(OC)c1` [eugenol]: the “activity category from cluster analysis” value in experiment [1] is on record as “moderately active”.
`CC(C)=CCC/C(C)=C/CO` [geraniol]: in experiment [1], the movement when sprayed entry is “did not move at all”, the “latency to response (movement latency)” value is recorded as “longer than amyl acetate” and the “activity category from cluster analysis” value is reported as “did not react”.
For `CC(=O)OC/C=C(\C)CCC=C(C)C` [geranyal acetate], the “activity category from cluster analysis” value in experiment [1] is recorded as “most active”.
Regarding `C=C(C)[C@H]1CC=C(C)CC1` [limonene], in experiment [1], the “latency to response (movement latency)” value is listed as “longer than amyl acetate” and the “activity category from cluster analysis” value was “only weakly active”.
For `C=CC(C)(O)CCC=C(C)C` (stereo not shown) [linalool], in experiment [1], the “latency to response (movement latency)” value is listed as “longer than amyl acetate” and the “activity category from cluster analysis” value is on record as “only weakly active”.
As to `COc1cccc(C=O)c1` [m-anisaldehyde], the “activity category from cluster analysis” value in experiment [1] is given as “most active”.
The same measure, in the same setting: the result for `CC(C)[C@@H]1CC[C@@H](C)CC1=O` [menthone] reads “highly irritating, but poor at promoting long-term locomatory behavior”; that for `COC(=O)c1ccccc1N` [methyl anthranilate], “highly irritating, but poor at promoting long-term locomatory behavior”; that for `COC(=O)c1ccccc1O` [methyl salicylate], “most active”.
On to `CC(C)=CCC/C(C)=C\CO` [nerol], for which, in experiment [1], the “latency to response (movement latency)” value is listed as “longer than amyl acetate” and the “activity category from cluster analysis” value is recorded as “moderately active”.
With `C/C=C/c1ccc(OC)cc1` [trans-anethole], the “activity category from cluster analysis” value in experiment [1] is listed as “most active”.
